Test results: PubChem BioAssay AID330 (DTP/NCI, 2004)
Where “and” joins values, the source holds several entries; their conditions need not be identical. Identical values can stand only once. Inconclusive results and toxic doses are left out.

Test system: P388 leukemia ip, CD2F1 mice, survival T/C
Test: NCI In Vivo Anticancer Drug Screen. Data for tumor model P388 Leukemia (intraperitoneal) in CD2F1 (CDF1) mice
Conditions: endpoint: median survival time, higher = longer survival
Summary of the method: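 Mice carrying the transplanted tumor received test compound or vehicle. Survival was recorded in each group, and the value is the treated-group measurement divided by that of the vehicle-treated control group.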

[1] = dose: 50.0 mg/kg/injection, schedule: Q01DX009 (ip), vehicle: saline with Tween-80
[2] = dose: 25.0 mg/kg/injection, schedule: Q01DX005 (ip), vehicle: Klucel (hydroxypropylcellulose) (HPC)
[3] = dose: 50.0 mg/kg/injection, schedule: Q01DX005 (ip), vehicle: Klucel (hydroxypropylcellulose) (HPC)
[4] = dose: 100.0 mg/kg/injection, schedule: Q01DX005 (ip), vehicle: Klucel (hydroxypropylcellulose) (HPC)
[5] = dose: 200.0 mg/kg/injection, schedule: Q01DX005 (ip), vehicle: Klucel (hydroxypropylcellulose) (HPC)
[6] = dose: 100.0 mg/kg/injection, schedule: Q01DX001 (ip), vehicle: saline with Tween-80

CCO/C=C1\SC(=S)N(c2ccc(C(=O)O)cc2)C1=O
T/C (dose: 4.4 mg/kg/injection, schedule: Q01DX009 (ip), vehicle: saline with Tween-80): 104 % of control
T/C (dose: 6.6 mg/kg/injection, schedule: Q01DX009 (ip), vehicle: saline with Tween-80): 109 % of control
T/C (dose: 10.0 mg/kg/injection, schedule: Q01DX009 (ip), vehicle: saline with Tween-80): 109 % of control
T/C (dose: 15.0 mg/kg/injection, schedule: Q01DX009 (ip), vehicle: saline with Tween-80): 109 % of control
T/C (dose: 100.0 mg/kg/injection, schedule: Q04DX003 (ip), vehicle: saline with Tween-80): 118 % of control
T/C (dose: 200.0 mg/kg/injection, schedule: Q04DX003 (ip), vehicle: saline with Tween-80): 113 % of control

O=C(O)C(CCc1ccccc1)NCc1ccccc1 (stereo unspecified)
T/C (dose: 25.0 mg/kg/injection, schedule: Q01DX009 (ip), vehicle: saline): 102 % of control
T/C (dose: 50.0 mg/kg/injection, schedule: Q01DX009 (ip), vehicle: saline): 88 % of control
T/C (dose: 100.0 mg/kg/injection, schedule: Q01DX009 (ip), vehicle: saline): 88 % of control and 94 % of control
T/C (dose: 200.0 mg/kg/injection, schedule: Q01DX009 (ip), vehicle: saline): 95 % of control
T/C (dose: 400.0 mg/kg/injection, schedule: Q01DX009 (ip), vehicle: saline): 89 % of control

O=c1[nH]c2c([N+](=O)[O-])cc(Cl)cc2nc1/C=C(\O)c1cccc2ccccc12
T/C (dose: 60.0 mg/kg/injection, schedule: Q01DX005 (ip), vehicle: Klucel (hydroxypropylcellulose) (HPC)): 101 % of control
T/C (dose: 120.0 mg/kg/injection, schedule: Q01DX005 (ip), vehicle: Klucel (hydroxypropylcellulose) (HPC)): 102 % of control
T/C (dose: 240.0 mg/kg/injection, schedule: Q01DX005 (ip), vehicle: Klucel (hydroxypropylcellulose) (HPC)): 105 % of control

CC1NCCCN(CCN(C)C)CCCNC(C)c2cccc1n2 (stereo unspecified)
T/C (dose: 50.0 mg/kg/injection, schedule: Q01DX001 (ip), vehicle: saline): 103 % of control and 96 % of control
T/C (dose: 100.0 mg/kg/injection, schedule: Q01DX001 (ip), vehicle: saline): 101 % of control and 114 % of control and 92 % of control
T/C (dose: 200.0 mg/kg/injection, schedule: Q01DX001 (ip), vehicle: saline): 103 % of control and 122 % of control and 97 % of control

O=C(Oc1ccccc1OC(=O)c1ccccc1)c1ccccc1
T/C (dose: 6.25 mg/kg/injection, schedule: Q01DX009 (ip), vehicle: saline with Tween-80): 108 % of control
T/C (dose: 12.5 mg/kg/injection, schedule: Q01DX009 (ip), vehicle: saline with Tween-80): 102 % of control
T/C (dose: 25.0 mg/kg/injection, schedule: Q01DX009 (ip), vehicle: saline with Tween-80): 106 % of control
T/C [1]: 108 % of control

CC1=C(CO)C(=O)O[C@@H]([C@@H](C)[C@H]2CC[C@H]3[C@@H]4C[C@H]5O[C@]56[C@@H](O)C=CC(=O)[C@]6(C)[C@H]4CC[C@]23C)C1
T/C (dose: 2.5 mg/kg/injection, schedule: Q04DX003 (ip), vehicle: saline): 102 % of control and 103 % of control
T/C (dose: 5.0 mg/kg/injection, schedule: Q04DX003 (ip), vehicle: saline): 100 % of control and 103 % of control
T/C (dose: 10.0 mg/kg/injection, schedule: Q04DX003 (ip), vehicle: saline): 109 % of control and 110 % of control
T/C (dose: 20.0 mg/kg/injection, schedule: Q04DX003 (ip), vehicle: saline): 102 % of control and 116 % of control
T/C (dose: 40.0 mg/kg/injection, schedule: Q04DX003 (ip), vehicle: saline): 109 % of control and 123 % of control

CCCCN(CCCC)/C(N)=N/O
T/C (dose: 20.0 mg/kg/injection, schedule: Q01DX009 (ip), vehicle: saline with Tween-80): 92 % of control
T/C (dose: 40.0 mg/kg/injection, schedule: Q01DX009 (ip), vehicle: saline with Tween-80): 100 % of control
T/C (dose: 80.0 mg/kg/injection, schedule: Q01DX009 (ip), vehicle: saline with Tween-80): 107 % of control

CN=C(NC)Nc1nc(-c2ccccc2)c(-c2ccccc2)[nH]1
T/C (dose: 12.5 mg/kg/injection, schedule: Q04DX002 (ip), vehicle: saline with Tween-80): 105 % of control
T/C (dose: 25.0 mg/kg/injection, schedule: Q04DX002 (ip), vehicle: saline with Tween-80): 100 % of control
T/C (dose: 50.0 mg/kg/injection, schedule: Q04DX002 (ip), vehicle: saline with Tween-80): 107 % of control

CCn1c(-c2ccc(OC(C)=O)cc2)c(C)c2cc(OC(C)=O)ccc21
T/C [2]: 100 % of control
T/C [3]: 101 % of control and 102 % of control
T/C [4]: 95 % of control and 97 % of control
T/C [5]: 90 % of control and 96 % of control
T/C (dose: 400.0 mg/kg/injection, schedule: Q01DX005 (ip), vehicle: Klucel (hydroxypropylcellulose) (HPC)): 100 % of control

c1ccc(-c2cc3c(cc4c5nncn5ncn34)o2)cc1
T/C (dose: 60.0 mg/kg/injection, schedule: Q01DX005 (ip), vehicle: saline with Tween-80): 86 % of control
T/C (dose: 120.0 mg/kg/injection, schedule: Q01DX005 (ip), vehicle: saline with Tween-80): 86 % of control
T/C (dose: 240.0 mg/kg/injection, schedule: Q01DX005 (ip), vehicle: saline with Tween-80): 91 % of control and 92 % of control

CCOC=C1C(=O)N(C)C(=O)N(C)C1=O
T/C [1]: 106 % of control
T/C (dose: 100.0 mg/kg/injection, schedule: Q01DX009 (ip), vehicle: saline with Tween-80): 106 % of control
T/C (dose: 200.0 mg/kg/injection, schedule: Q01DX009 (ip), vehicle: saline with Tween-80): 108 % of control

Cc1cc(NCc2ccccc2)cc(=O)[nH]1
T/C [6]: 95 % of control
T/C (dose: 200.0 mg/kg/injection, schedule: Q01DX001 (ip), vehicle: saline with Tween-80): 89 % of control
T/C (dose: 400.0 mg/kg/injection, schedule: Q01DX001 (ip), vehicle: saline with Tween-80): 87 % of control

c1ccc(CCn2c(-c3ccncc3)nc3ccccc32)nc1
T/C [2]: 109 % of control
T/C [3]: 104 % of control
T/C [4]: 107 % of control
T/C [5]: 105 % of control

c1ccc(CN2CCCC3CCCC32)cc1 (stereo unspecified)
T/C [6]: 97 % of control

C/C=C/C=C/c1cc2cc3c(c(O)c2c(=O)[nH]1)C1(CC3)C(O)=c2c(=O)c3c(=O)cc(OC)c(=O)c=3c(=O)c2=C1O (stereo unspecified)
T/C (dose: 0.12 mg/kg/injection, schedule: Q01DX009 (ip), vehicle: other): 116 % of control
T/C (dose: 0.25 mg/kg/injection, schedule: Q01DX009 (ip), vehicle: other): 118 % of control
T/C (dose: 0.5 mg/kg/injection, schedule: Q01DX009 (ip), vehicle: other): 87 % of control and 100 % of control
T/C (dose: 0.75 mg/kg/injection, schedule: Q01DX009 (ip), vehicle: Klucel (hydroxypropylcellulose) (HPC)): 98 % of control
T/C (dose: 1.0 mg/kg/injection, schedule: Q01DX009 (ip), vehicle: other): 113 % of control
T/C (dose: 1.5 mg/kg/injection, schedule: Q01DX009 (ip), vehicle: Klucel (hydroxypropylcellulose) (HPC)): 99 % of control
T/C (dose: 1.5 mg/kg/injection, schedule: Q01DX009 (ip), vehicle: saline with Tween-80): 112 % of control
T/C (dose: 6.0 mg/kg/injection, schedule: Q01DX009 (ip), vehicle: Klucel (hydroxypropylcellulose) (HPC)): 156 % of control
T/C (dose: 8.0 mg/kg/injection, schedule: Q01DX009 (ip), vehicle: other): 123 % of control
T/C (dose: 12.0 mg/kg/injection, schedule: Q01DX009 (ip), vehicle: Klucel (hydroxypropylcellulose) (HPC)): 192 % of control
T/C (dose: 12.0 mg/kg/injection, schedule: Q01DX009 (ip), vehicle: saline with Tween-80): 87 % of control
T/C (dose: 63.0 micrograms/kg/injection, schedule: Q01DX009 (ip), vehicle: other): 101 % of control
T/C (dose: 63.0 micrograms/kg/injection, schedule: Q01DX009 (ip), vehicle: water): 101 % of control and 110 % of control
T/C (dose: 125.0 micrograms/kg/injection, schedule: Q01DX009 (ip), vehicle: other): 99 % of control
T/C (dose: 125.0 micrograms/kg/injection, schedule: Q01DX009 (ip), vehicle: water): 112 % of control and 119 % of control
T/C (dose: 250.0 micrograms/kg/injection, schedule: Q01DX009 (ip), vehicle: other): 102 % of control
T/C (dose: 250.0 micrograms/kg/injection, schedule: Q01DX009 (ip), vehicle: water): 119 % of control and 120 % of control
T/C (dose: 500.0 micrograms/kg/injection, schedule: Q01DX009 (ip), vehicle: other): 114 % of control
T/C (dose: 500.0 micrograms/kg/injection, schedule: Q01DX009 (ip), vehicle: water): 153 % of control
T/C (dose: 1000.0 micrograms/kg/injection, schedule: Q01DX009 (ip), vehicle: other): 115 % of control
T/C (dose: 1000.0 micrograms/kg/injection, schedule: Q01DX009 (ip), vehicle: water): 160 % of control and 178 % of control
T/C (dose: 2000.0 micrograms/kg/injection, schedule: Q01DX009 (ip), vehicle: water): 175 % of control

O=C1OC(C(O)C(O)CO)C(O)C1O (stereo unspecified)
T/C (dose: 50.0 mg/kg/injection, schedule: Q01DX005 (ip), vehicle: saline): 108 % of control
T/C (dose: 100.0 mg/kg/injection, schedule: Q01DX005 (ip), vehicle: saline): 100 % of control
T/C (dose: 200.0 mg/kg/injection, schedule: Q01DX005 (ip), vehicle: saline): 95 % of control
